Experimental data published in patent US11066414B2, “Cot modulators and methods of use thereof” (Gilead Sciences, Inc., priority 2015, dated 2021).
Where two headings read alike, the source gives them in different places.

Key:
TNFα = assay: Cot Monocyte TNFα Cell Based Assay
Human Cot = Human Cot (Homo sapiens (Human), UniProt P41279); assay: High Throughput Cot Biochemical Assay
[1] = Homo sapiens, Monocyte, read-out: EC50 TNF, LPS-stimulated human monocytes, TNFα
[2] = IC50 HTRF, Cot HTRF (TR-FRET) biochemical assay
[3] = Homo sapiens, Monocyte, read-out: EC50 TNF, LPS-stimulated human monocytes, TNFα TR-FRET
[4] = IC50 HTRF, Cot HTRF (TR-FRET KinEASE) biochemical assay, 400 μM ATP
[5] = read-out: EC50 TNF, LPS-stimulated human monocytes, TNFα
[6] = read-out: IC50 HTRF, Cot HTRF (TR-FRET) biochemical assay

Sequence of Human Cot (P41279 30-397): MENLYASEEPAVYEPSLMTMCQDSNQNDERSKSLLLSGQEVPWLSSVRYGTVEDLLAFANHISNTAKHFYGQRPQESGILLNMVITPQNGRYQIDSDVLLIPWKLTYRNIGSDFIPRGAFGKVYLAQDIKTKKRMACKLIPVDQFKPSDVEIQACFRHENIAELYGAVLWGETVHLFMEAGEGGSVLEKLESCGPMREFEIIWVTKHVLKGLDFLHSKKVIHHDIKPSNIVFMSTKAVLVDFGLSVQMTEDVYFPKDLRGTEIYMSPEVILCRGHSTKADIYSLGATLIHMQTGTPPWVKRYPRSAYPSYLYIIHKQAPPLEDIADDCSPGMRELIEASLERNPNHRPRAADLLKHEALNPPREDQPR

| EC50 (TNFα; [1]) [nM] | IC50 (Human Cot; [2]) [nM] | Compound | other results |
| --- | --- | --- | --- |
| 457 | 3 | N#Cc1cnc2c(Cl)cc(N[C@H](c3cn(C4COC4)nn3)c3csc4c3CCNC4)cc2c1Nc1ccc(F)c(Cl)c1 [Example 279, (S)-8-chloro-4-((3-chloro-4-fluorophenyl)amino)-6-(((1-(oxetan-3-yl)-1H-1,2,3-triazol-4-yl)(4,5,6,7-tetrahydrothieno[2,3-c]pyridin-3-yl)methyl)amino)quinoline-3-carbonitrile] |  |
| 1800 | 5 | [2H][C@](Nc1cc(Cl)c2ncc(C#N)c(Nc3cnc(F)c(F)c3)c2c1)(c1cccnc1)c1c[nH]nn1 [Example 164, (S)-8-chloro-4-((5,6-difluoropyridin-3-yl)amino)-6-((pyridin-3-yl(1H-1,2,3-triazol-4-yl)methyl-d)amino)quinoline-3-carbonitrile] |  |
| 407 | 19 | CC(C)(C)CNc1c(C#N)cnc2c(Cl)cc(N[C@H](c3cn(C4CC4)nn3)c3cccc4scnc34)cc12 [Example 449, (S)-6-((benzo[d]thiazol-4-yl(1-cyclopropyl-1H-1,2,3-triazol-4-yl)methyl)amino)-8-chloro-4-(neopentylamino)quinoline-3-carbonitrile] |  |
| 242 | 22 | Cc1nc(F)ccc1C(Nc1cc(Cl)c2ncc(C#N)c(NCC(C)(C)C)c2c1)c1cn(C)nn1 (stereo not shown) [Example 791, 8-chloro-6-(((6-fluoro-2-methylpyridin-3-yl)(1-methyl-1H-1,2,3-triazol-4-yl)methyl)amino)-4-(neopentylamino)quinoline-3-carbonitrile] |  |
| 212 | 10 | Cc1nc(Cl)ccc1[C@H](Nc1cc(Cl)c2ncc(C#N)c(Nc3ccc(F)c(Cl)c3)c2c1)c1cn(C2COC2)nn1 [Example 321, (S)-8-chloro-6-(((6-chloro-2-methyl-pyridin-3-yl)(1-(oxetan-3-yl)-1H-1,2,3-triazol-4-yl)methyl)amino)-4-((3-chloro-4-fluorophenyl)amino)quinoline-3-carbonitrile] |  |
| 31 | 3 | CCC1(n2cc([C@@H](Nc3cc(Cl)c4ncc(C#N)c(NCC(C)(C)C)c4c3)c3ccc(F)nc3C)nn2)CC1 [Example 754, (S)-8-chloro-6-(((1-(1-ethylcyclopropyl)-1H-1,2,3-triazol-4-yl)(6-fluoro-2-methylpyridin-3-yl)methyl)amino)-4-(neopentylamino)quinoline-3-carbonitrile] |  |
| 66 | 2 | CC(C)(C)CNc1c(C#N)cnc2c(Cl)cc(N[C@H](c3cn(C4(C#N)CC4)nn3)c3cccc4ncccc34)cc12 [Example 567, (S)-8-chloro-6-(((1-(1-cyanocyclopropyl)-1H-1,2,3-triazol-4-yl)(quinolin-5-yl)methyl)amino)-4-(neopentylamino)-quinoline-3-carbonitrile] |  |

More lines, now with the values behind:

| Compound | EC50 (TNFα; [1]) [nM] | IC50 (Human Cot; [2]) [nM] | other results |
| --- | --- | --- | --- |
| CC(C)(C)N1CCC(n2cc([C@@H](Nc3cc(Cl)c4ncc(C#N)c(Nc5ccc(Cl)c(Cl)c5F)c4c3)c3cccnc3)nn2)CC1 [Example 260, (S)-6-(((1-(1-(tert-butyl)piperidin-4-yl)-1H-1,2,3-triazol-4-yl)(pyridin-3-yl)methyl)amino)-8-chloro-4-((3,4-dichloro-2-fluorophenyl)amino)-quinoline-3-carbonitrile] | 126 | 6 |  |
| CC(C)(C)CNc1c(C#N)cnc2c(Cl)cc(N[C@H](c3cn(C4(C(F)(F)F)CC4)nn3)c3cccc4ncsc34)cc12 [Example 417, (S)-6-((benzo[d]thiazol-7-yl(1-(1-(trifluoromethyl)cyclopropyl)-1H-1,2,3-triazol-4-yl)methyl)amino)-8-chloro-4-(neopentylamino)quinoline-3-carbonitrile] | 218 | 9 |  |
| Cc1nc(F)ccc1[C@H](Nc1cc(C#N)c2ncc(C#N)c(NCC(C)(C)C(F)(F)F)c2c1)c1cn(C2(C(F)F)CC2)nn1 [Example 832, (S)-6-(((1-(l-(difluoromethyl)-cyclopropyl)-1H-1,2,3-triazol-4-yl)(6-fluoro-2-methylpyridin-3-yl)methyl)amino)-4-((3,3,3-trifluoro-2,2-dimethylpropyl)amino)quinoline-3,8-dicarbonitrile] |  |  | EC50 (TNFα; read-out: EC50 TNF, LPS-stimulated human monocytes, TNFα TR-FRET): 44 nM; IC50 (Human Cot; read-out: IC50 HTRF, Cot HTRF (TR-FRET KinEASE) biochemical assay, 400 μM ATP): 2 nM |
| CC[C@@H](Nc1c(C#N)cnc2c(Cl)cc(N[C@@H](c3ccc(F)nc3C)c3nnn(C4(C(F)(F)F)CC4)c3F)cc12)c1ccccc1 [Example 950, 8-chloro-6-(((S)-(5-fluoro-1-(1-(trifluoromethyl)cyclopropyl)-1H-1,2,3-triazol-4-yl)(6-fluoro-2-methylpyridin-3-yl)methyl)amino)-4-(((R)-1-phenylpropyl)amino)quinoline-3-carbonitrile] |  |  | EC50 (TNFα; [3]): 260 nM; IC50 (Human Cot; [4]): 17 nM |
| CC(C)(C)CNc1c(C#N)cnc2c(C#N)cc(N[C@H](c3cn(C4(C(F)(F)F)CC4)nn3)c3cccc4cnc(C#N)cc34)cc12 [Example 909, (S)-6-(((3-cyanoisoquinolin-5-yl)(1-(1-(trifluoromethyl)cyclopropyl)-1H-1,2,3-triazol-4-yl)methyl)amino)-4-(neopentylamino)quinoline-3,8-dicarbonitrile] |  |  | EC50 (TNFα; [3]): 116 nM; IC50 (Human Cot; [4]): 8 nM |
| CC(C)(C)CNc1c(C#N)cnc2c(Cl)cc(N[C@H](c3cn(C(CF)CF)nn3)c3cccc4ncccc34)cc12 [Example 804, (S)-8-chloro-6-(((1-(1,3-difluoropropan-2-yl)-1H-1,2,3-triazol-4-yl)(quinolin-5-yl)methyl)amino)-4-(neopentylamino)quinoline-3-carbonitrile] |  |  | EC50 (TNFα; [3]): 137 nM; IC50 (Human Cot; [4]): 9 nM |
| N#Cc1cnc2c(Cl)cc(N[C@H](c3c[nH]nn3)c3ccc(F)nc3F)cc2c1Nc1cnc(F)c(F)c1 [Example 154, (S)-8-chloro-6-(((2,6-difluoropyridin-3-yl)(1H-1,2,3-triazol-4-yl)methyl)amino)-4-((5,6-difluoropyridin-3-yl)amino)quinoline-3-carbonitrile] | 1670 | 26 |  |
| N#Cc1cnc2c(Cl)cc(N[C@@H](c3cocn3)c3cn(C4CCN(C5COC5)CC4)nn3)cc2c1Nc1ccc(Cl)c(Cl)c1F [Example 242, (S)-8-chloro-4-((3,4-dichloro-2-fluorophenyl)amino)-6-((o)(azol-4-yl(1-(1-(oxetan-3-yl)piperidin-4-yl)-1H-1,2,3-triazol-4-yl)methyl)amino)quinoline-3-carbonitrile] |  |  | EC50 (TNFα; [5]): 5800 nM; IC50 (Human Cot; [6]): 143 nM |
| Cn1cc2cccc([C@H](Nc3cc(C#N)c4ncc(C#N)c(NCC(C)(C)C)c4c3)c3cn(C4(C(F)(F)F)CC4)nn3)c2n1 [Example 573, (S)-6-(((2-methyl-2H-indazol-7-yl)(1-(1-(trifluoromethyl)cyclopropyl)-1H-1,2,3-triazol-4-yl)methyl)amino)-4-(neopentylamino)quinoline-3,8-dicarbonitrile] | 751 | 66 |  |
| Cc1ccc([C@H](Nc2cc(C#N)c3ncc(C#N)c(NCC(C)(C)C)c3c2)c2cn(C3(C(F)F)CC3)nn2)c(C)n1 [Example 829, (S)-6-(((1-(1-(difluoromethyl)-cyclopropyl)-1H-1,2,3-triazol-4-yl)(2,6-dimethylpyridin-3-yl)methyl)amino)-4-(neopentylamino)quinoline-3,8-dicarbonitrile] |  |  | EC50 (TNFα; [3]): 66 nM; IC50 (Human Cot; [4]): 4 nM |
| COc1c([C@@H](Nc2cc(C#N)c3ncc(C#N)c(NCC(C)(C)C)c3c2)c2ccc(F)nc2C)nnn1C12CC(C1)C2 [Example 868, (S)-6-(((1-(bicyclo[1.1,1]pentan-1-yl)-5-methoxy-1H-1,2,3-triazol-4-yl)(6-fluoro-2-methylpyridin-3-yl)methyl)amino)-4-(neopentylamino)quinoline-3,8-dicarbonitrile] |  |  | EC50 (TNFα; [3]): 70 nM; IC50 (Human Cot; [4]): 2 nM |
| CC(C)(C)CNc1c(C#N)cnc2c(C#N)cc(N[C@H](c3cn(C45CC(C4)C5)nn3)c3cccc4c(=O)[nH]ccc34)cc12 [Example 888, (S)-6-(((1-(bicyclo[1.1.1]pentan-1-yl)-1H-1,2,3-triazol-4-yl)(1-oxo-1,2-dihydroisoquinolin-5-yl)methyl)amino)-4-(neopentylamino)quinoline-3,8-dicarbonitrile] |  |  | EC50 (TNFα; [3]): 165 nM; IC50 (Human Cot; [4]): 2 nM |
| N#Cc1cnc2c(Cl)cc(N[C@@H](c3cccnc3)c3cn(C4COC4)nn3)cc2c1N[C@H](CCO)c1ccccc1 [Example 183, 8-chloro-4-(((R)-3-hydroxy-1-phenylpropyl)amino)-6-(((S)-(1-(oxetan-3-yl)-1H-1,2,3-triazol-4-yl)(pyridin-3-l)methyl)amino)-quinoline-3-carbonitrile] |  |  | EC50 (TNFα; [5]): > 10000 nM; IC50 (Human Cot; [6]): 357 nM |
| CCC(F)(F)Cn1cc([C@@H](Nc2cc(Cl)c3ncc(C#N)c(NCC(C)(C)C)c3c2)c2ccc(F)nc2C)nn1 [Example 750, (S)-8-chloro-6-(((1-(2,2-ifluorobutyl)-1H-1,2,3-triazol-4-yl)(6-fluoro-2-methylpyridin-3-yl)methyl)amino)-4-(neopentylamino)quinoline-3-carbonitrile] |  |  | EC50 (TNFα; [5]): 194 nM; IC50 (Human Cot; [6]): 11 nM |
| CC(C)(C)CNc1c(C#N)cnc2c(Cl)cc(N[C@H](c3cn(C4(C(N)=O)CCC4)nn3)c3cccc4ncsc34)cc12 [Example 463, (S)-1-(4-(benzo[d]thiazol-7-yl((8-chloro-3-cyano-4-(neopentylamino)quinolin-6-yl)amino)methyl)-1H-1,2,3-triazol-1-yl)cyclobutane-1-carboxamide] | 63 | 2 |  |
| CC(C)(C)CNc1c(C#N)cnc2c(Cl)cc(N[C@H](c3cn(C4(C(N)=O)CCC4)nn3)c3cccc4cnccc34)cc12 [Example 562, (S)-1-(4-(((8-chloro-3-cyano-4-(neopentyl-amino)quinolin-6-yl)amino)(isoquinolin-5-yl)methyl)-1H-1,2,3-triazol-1-yl)cyclobutane-1-carboxamide] | 231 | 2 |  |
